Where two headings read alike, the source gives them in different places.
Legend:
Format in all cases: cell-based
Diaporthe citri = assay: in vitro-Test with Diaporthe citri (microtiter growth inhibition); details: Diaporthe citri, read-out: Efficacy; for inhibition of growth at 0.02 ppm: 0.020 ppm
Summary of the method: (§1)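 Fungal spores or mycelium in liquid potato dextrose medium are incubated on wells pre-coated with evaporated test material at 20° C. and 85% humidity. Absorbance at 620 nm is taken initially and 3-5 days post-application; efficacy (%) is scaled from untreated control growth (0%) to no growth (100%).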

[1] = tested on: Ustilago segetum var. avenae; assay: in vitro-Test with Ustilago segetum var. avenae (microtiter growth inhibition); details: read-out: Efficacy %; for inhibition of growth at 0.02 ppm: 0.020 ppm
Summary of the method: as §1

[2] = tested on: Colletotrichum lindemuthianum; assay: in vitro-Test with Colletotrichum lindemuthianum (microtiter growth inhibition); details: Colletotrichum lindemuthianum, read-out: Efficacy %; for inhibition of growth at 0.004 ppm: applied alone at 0.004 ppm; for inhibition of growth at 0.02 ppm: applied alone at 0.020 ppm; for inhibition of growth at 0.1 ppm: applied alone at 0.1 ppm; for inhibition of growth at 0.5 ppm: applied alone at 0.5 ppm
Description: The degree of efficacy expressed in % is denoted: 0% means an efficacy, which corresponds to that of the control, while an efficacy of 100% means that no disease is observed.
If the actual fungicidal activity exceeds the calculated value, then the activity of the combination is super-additive, i.e. a synergistic effect exists. In this case, the efficacy, which was actually observed, must be greater than the value for the expected efficacy (E), that was calculated from the abovementioned formula.
Example: In Vitro-Test with Fungal Microorganisms
Wells of 96-well microtiter plates are filled with 10 μl of a preparation of test compound or compound combination in methanol+emulsifier alkylaryl-polyglycol-ether. Thereafter, the solvent is evaporated in a hood. At the next step, 100 μl of liquid potato dextrose medium is given into each well, that has been amended with an appropriate concentration of spores or mycelium suspension of the test fungus.
With the aid of a photometer, the extinction in all wells is measured at the wavelength of 620 nm.
The microtiter plates are incubated at 20° C. and 85% relative humidity. The inhibition of growth is determined again photometrically 3-5 days after the application. Efficacy is calculated in relation to the untreated control, 0% efficacy means fungal growth as high as in untreated control while 100% efficacy means no fungal growth is measured.

Alternaria alternate = assay: in vitro-Test with Alternaria alternate (microtiter growth inhibition); details: Alternaria
Summary of the method: as §1

Parastagonospora nodorum = assay: in vitro-Test with Parastagonospora nodorum (microtiter growth inhibition); details: Parastagonospora nodorum, compound alone, read-out: Efficacy %; for inhibition of growth at 0.02 ppm: 0.020 ppm
Summary of the method: as §1

Cordana musae = assay: in vitro-Test with Cordana musae (microtiter growth inhibition); details: Neocordana musae, single substance, read-out: Efficacy; for inhibition of growth at 0.02 ppm: 0.020 ppm
Summary of the method: as §1

Fusarium culmorum = assay: in vitro-Test with Fusarium culmorum (microtiter growth inhibition); details: Fusarium culmorum, read-out: Efficacy; for inhibition of growth at 0.02 ppm: 0.020 ppm
Summary of the method: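 Photometric extinction at 620 nm, measured at setup and again 3-5 days later, gives growth inhibition; 0% efficacy equals untreated-control growth, 100% means no growth. Compounds were applied in methanol/emulsifier, solvent evaporated, then spore or mycelium suspension in potato dextrose broth added; incubation at 20° C., 85% RH.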

Cercospora beticola = assay: in vitro-Test with Cercospora beticola (microtiter growth inhibition); details: Cercospora beticola, read-out: Efficacy %
Summary of the method: as §1

[3] = applied alone, read-out: Efficacy

| SMILES | inhibition of growth at 0.004 ppm (Diaporthe citri; applied alone) [%] | inhibition of growth at 0.02 ppm (Diaporthe citri; applied alone) [%] | inhibition of growth at 0.1 ppm (Diaporthe citri; applied alone) [%] | inhibition of growth at 0.5 ppm (Diaporthe citri; applied alone) [%] | inhibition of growth at 0.004 ppm ([1]; single compound) [%] | inhibition of growth at 0.02 ppm ([1]; single compound) [%] | inhibition of growth at 0.1 ppm ([1]; single compound) [%] | inhibition of growth at 0.5 ppm ([1]; single compound) [%] | inhibition of growth at 0.004 ppm [2] [%] | inhibition of growth at 0.02 ppm [2] [%] | inhibition of growth at 0.1 ppm [2] [%] | inhibition of growth at 0.5 ppm [2] [%] | inhibition of growth at 0.004 ppm (Parastagonospora nodorum) [%] | inhibition of growth at 0.02 ppm (Parastagonospora nodorum) [%] | inhibition of growth at 0.1 ppm (Parastagonospora nodorum) [%] | inhibition of growth at 0.5 ppm (Parastagonospora nodorum) [%] | inhibition of growth at 0.004 ppm (Cordana musae) [%] | inhibition of growth at 0.02 ppm (Cordana musae) [%] | inhibition of growth at 0.1 ppm (Cordana musae) [%] | inhibition of growth at 0.5 ppm (Cordana musae) [%] | other results |
| --- | --- | --- | --- | --- | --- | --- | --- | --- | --- | --- | --- | --- | --- | --- | --- | --- | --- | --- | --- | --- | --- |
| Cc1ccc(C(F)(F)CNC(=O)c2c(Oc3cccc(C4CC4)c3F)nnc(Cl)c2C)c(Cl)c1 [Compound I-746, 6-chloro-N-[2-(2-chloro-4-methylphenyl)-2,2-difluoroethyl]-3-(3-cyclopropyl-2-fluoro-phenoxy)-5-methylpyridazine-4-carboxamide] | 0 | 0 | 2 | 51 | 0 | 2 | 0 | 0 | 0 | 14 | 100 | 100 | 0 | 0 | 31 | 100 | 0 | 10 | 79 | 100 | inhibition of growth at 0.004 ppm ([1]; compound alone): 0%; inhibition of growth at 0.02 ppm ([1]; compound alone): 2%; inhibition of growth at 0.1 ppm ([1]; compound alone): 0%; inhibition of growth at 0.5 ppm ([1]; compound alone): 0%; inhibition of growth at 0.004 ppm (Alternaria alternate; alone, read-out: Efficacy %): 0%; inhibition of growth at 0.02 ppm (Alternaria alternate; 0.02 ppm, alone, read-out: Efficacy %): 0%; inhibition of growth at 0.1 ppm (Alternaria alternate; alone, read-out: Efficacy %): 22%; inhibition of growth at 0.5 ppm (Alternaria alternate; alone, read-out: Efficacy %): 100%; inhibition of growth at 0.004 ppm (Fusarium culmorum): 0%; inhibition of growth at 0.02 ppm (Fusarium culmorum): 0%; inhibition of growth at 0.1 ppm (Fusarium culmorum): 0%; inhibition of growth at 0.5 ppm (Fusarium culmorum): 0%; inhibition of growth at 0.004 ppm (Cercospora beticola; alone, 0.004 ppm): 0%; inhibition of growth at 0.02 ppm (Cercospora beticola; alone, 0.020 ppm): 5%; inhibition of growth at 0.1 ppm (Cercospora beticola; alone, 0.1 ppm): 4%; inhibition of growth at 0.5 ppm (Cercospora beticola; alone, 0.5 ppm): 26% |
| Cc1ccc(C(F)(F)CNC(=O)c2c(Oc3cccc(C4CC4)c3F)nnc(Cl)c2C)cc1C [Compound I-749, 6-chloro-3-(3-cyclopropyl-2-fluorophenoxy)-N-[2-(3,4-dimethylphenyl)-2,2-difluoroethyl]-5-methylpyridazine-4-carboxamide] | 0 | 0 | 0 | 100 | 1 | 0 | 0 | 0 | 1 | 19 | 100 | 100 | 0 | 0 | 92 | 100 | 0 | 64 | 100 | 100 | inhibition of growth at 0.004 ppm (Diaporthe citri): 0%; inhibition of growth at 0.02 ppm (Diaporthe citri): 0%; inhibition of growth at 0.1 ppm (Diaporthe citri): 0%; inhibition of growth at 0.5 ppm (Diaporthe citri): 100%; inhibition of growth at 0.004 ppm (Alternaria alternate; [3]): 0%; inhibition of growth at 0.02 ppm (Alternaria alternate; applied alone, 0.020 ppm, read-out: Efficacy): 14%; inhibition of growth at 0.1 ppm (Alternaria alternate; [3]): 24%; inhibition of growth at 0.5 ppm (Alternaria alternate; [3]): 100%; inhibition of growth at 0.004 ppm (Fusarium culmorum): 0%; inhibition of growth at 0.02 ppm (Fusarium culmorum): 10%; inhibition of growth at 0.1 ppm (Fusarium culmorum): 11%; inhibition of growth at 0.5 ppm (Fusarium culmorum): 18%; inhibition of growth at 0.004 ppm (Cercospora beticola; alone, 0.004 ppm): 0%; inhibition of growth at 0.02 ppm (Cercospora beticola; alone, 0.020 ppm): 0%; inhibition of growth at 0.1 ppm (Cercospora beticola; alone, 0.1 ppm): 8%; inhibition of growth at 0.5 ppm (Cercospora beticola; alone, 0.5 ppm): 22%; inhibition of growth at 0.004 ppm (Cercospora beticola; applied alone at 0.004 ppm): 0%; inhibition of growth at 0.02 ppm (Cercospora beticola; applied alone at 0.020 ppm): 0%; inhibition of growth at 0.1 ppm (Cercospora beticola; applied alone at 0.1 ppm): 8%; inhibition of growth at 0.5 ppm (Cercospora beticola; applied alone at 0.5 ppm): 22% |
